According to article PMC11938873 (Science Progress, 2025):

How the values were obtained:
IvAIS1 [1] = test: GC-MS product assay, isoeugenol formation; type: biochemical, Illicium verum; conditions: NADPH co-substrate; pH 7.0, 45 °C
IvAIS1 [2] = test: GC-MS product assay, t-anol formation; type: biochemical, Illicium verum; conditions: NADPH co-substrate; pH 7.0, 40 °C

COc1cc(/C=C/COC(C)=O)ccc1O [coniferyl acetate]
Km (IvAIS1 [1]): 438 ± 44.3 µM

CC(=O)OC/C=C/c1ccc(O)cc1 [coumaryl acetate]
Km (IvAIS1 [2]): 480 ± 86.6 µM
